In patent US10513534B2, “2′-chloro nucleoside analogs for HCV infection” (priority 2012, dated 2019):
Like-named read-outs stand apart in the source and are kept apart here.

Experiments:
HCV genotype 1b replicon = assay: HCV replicon assay (Zluc luciferase); type: cell-based; details: Zluc cells, 72 hours, read-out: HCV Replicon EC50
Experimental: Huh-7-derived cell line (Zluc) that harbors an HCV genotype 1b replicon and a luciferase reporter gene was grown in Dulbecco's Modified Eagle Medium (DMEM) supplemented with 10% fetal bovine serum, 2 mM GlutaMAX, 1% MEM nonessential amino acids, 100 IU/mL penicillin, 100 μg/mL streptomycin, and 0.5 mg/mL Geneticin® (G418). For dose response testing the cells were seeded in 96-well plates at 7.5×10^3 cells per well in a volume of 50 μL, and incubated at 37° C./5% CO2. Drug solutions were made up freshly in Huh-7 media as 2× stocks. Ten additional 5-fold dilutions were prepared from these stocks in DMEM without G418. At least three hours after Zluc cells were seeded, drug treatment was initiated by adding 50 μL of drug dilutions to the plates in duplicate. Final concentrations of drug ranged from 100 μM to […]. Cells were then incubated at 37° C./5% CO2. Alternatively, compounds were tested at two concentrations (1 μM and 10 μM). […] For this, media was removed from the plates via gentle tapping. Fifty microliters of ONE-glo luciferase assay reagent was added to each well. The plates were shaken gently for 3 min at room temperature and luminescence was measured on a Victor^3 V 1420 multilabel counter (Perkin Elmer) with a 1 second read time using a 700 nm cut-off filter. The EC50 values were calculated from dose response curves from the resulting best-fit equations determined by Microsoft Excel and XLfit 4.1 software. When screening at two fixed concentrations, the results were expressed as % inhibition at 1 μM and 10 μM.

in vitro = details: human
[1] = Liver triphosphate pharmacokinetics after single oral dose in CD-1 mice; type: in vivo; parameters: key: + ≤ 15; 15 < ++ ≤ 50; 50 < +++ ≤ 100; 100 < ++++; BLQ = below limit of quantitation; details: single oral dose 10 mg/kg in PEG 200;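 on Ms Liver TP AUC: pmol·h/g liver normalized to a 1 µmol/kg dose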;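 on Ms Liver TP Cmax: pmol/g liver normalized to a 1 µmol/kg dose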
Experimental: Internal standard solution was added to the homogenate followed by neutralization with 20% ammonium hydroxide solution and addition of 500 μL 1% formic acid. The tissue samples were extracted by weak anion exchange solid phase extraction (SPE). Post extraction, the eluates were evaporated under nitrogen, followed by reconstitution before injection onto the LC-MS/MS system.

[2] = Plasma nucleoside pharmacokinetics after single oral dose in CD-1 mice; type: in vivo; details: single oral dose 10 mg/kg in PEG 200;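 on Ms Plasma nucleoside AUC: pmol·h/mL plasma normalized to a 1 µmol/kg dose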
Experimental: Plasma samples were analyzed for nucleoside by LC-MS/MS. The internal standard (IS) was either 2′-MeG-D3 or tiapride. For protein precipitation and extraction, each plasma sample (50 μL) was treated with 500 μL of 0.2% formic acid in acetonitrile and 20 μL of the internal standard working solution. After vortexing and centrifugation, 500 μL of the sample extracts were transferred to a new plate, dried under N2 at ˜28° C. and reconstituted with 75 μL of 0.2% FA in water. The extracts were chromatographed on an Aquasil C18 column using a gradient system of 0.2% formic acid in water and acetonitrile. The analytes were detected and quantified by tandem mass spectrometry in positive ion mode on an MDS Sciex API5000 equipped with a Turbo Ionspray® interface. The calibration range was 0.500 (LLOQ) to 200 ng/mL in mouse plasma.

Zluc cells = assay: Cytotoxicity evaluation, CellTiter-Blue Cell Viability Assay; details: Zluc cells, CellTiter-Blue

CCOC(=O)NCCC(C)(C)C(=O)SCCOP(=O)(NCc1ccccc1)OC[C@H]1O[C@@H](n2ccc(=O)[nH]c2=O)[C@](C)(Cl)[C@@H]1O (mixture of isomers) [Compound 51 Mixture of P-Diastereoisomers]
EC50 (HCV genotype 1b replicon; Hepatitis C virus, 72 h): 0.25 to 1 µM | CC50 (in vitro): > 50 µM

CCOc1nc(N)nc2c1ncn2[C@@H]1O[C@H](COP(=O)(N[C@@H](C)C(=O)OC(C)C)Oc2ccccc2)[C@@H](O)[C@@]1(C)Cl (single isomer, unassigned) [Compound 17ii Diastereomer 1]
EC50 (HCV genotype 1b replicon; Hepatitis C virus, 72 h): 1 to 10 µM | Ms Liver TP AUC [1]: BLQ | Ms Liver TP Cmax [1]: BLQ | CC50 (in vitro): > 50 µM

CC(C)OC(=O)[C@H](C)NP(=O)(OC[C@H]1O[C@@H](n2cnc3c(=O)[nH]c(N)nc32)[C@](C)(Cl)[C@@H]1O)Oc1ccccc1 (single isomer, unassigned) [Compound 21ii Diastereomer 1]
EC50 (HCV genotype 1b replicon; Hepatitis C virus, 72 h): > 10 µM | CC50 (in vitro): > 50 µM

C[C@H](NP(=O)(OC[C@H]1O[C@@H](n2ccc(=O)[nH]c2=O)[C@](C)(Cl)[C@@H]1O)Oc1ccccc1)C(=O)OCC(C)(C)C (single isomer, unassigned) [Compound 42ii Single Diastereoisomer]
EC50 (HCV genotype 1b replicon; Hepatitis C virus, 72 h): < 0.25 µM | CC50 (in vitro): > 50 µM

CC(C)OC(=O)C(C)NP(=O)(OCCSC(=O)C(C)(C)C)OC[C@H]1O[C@@H](n2ccc(=O)[nH]c2=O)[C@](C)(Cl)[C@@H]1O (single isomer, unassigned) [Compound 43ii Diastereomer 2]
EC50 (HCV genotype 1b replicon; Hepatitis C virus, 72 h): 0.25 to 1 µM | CC50 (in vitro): > 50 µM

CC(C)(CO)C(=O)SCCOP1(=O)OC[C@H]2O[C@@H](n3ccc(=O)[nH]c3=O)[C@](C)(Cl)[C@@H]2O1 (single isomer, unassigned) [Compound 46 Single Diastereoisomer]
EC50 (HCV genotype 1b replicon; Hepatitis C virus, 72 h): < 0.25 µM | CC50 (in vitro): > 50 µM

CC(C)OC(=O)[C@H](C)NP(=O)(OC[C@H]1O[C@@H](n2ccc(N)nc2=O)[C@](C)(Cl)[C@@H]1O)Oc1ccccc1 (single isomer, unassigned) [Compound 56ii Diastereomer 1]
EC50 (HCV genotype 1b replicon; Hepatitis C virus, 72 h): > 10 µM | CC50 (in vitro): > 50 µM

CC(C)(C)C(=O)SCCOP1(=O)OC[C@H]2O[C@@H](n3ccc(N)nc3=O)[C@](C)(Cl)[C@@H]2O1 (single isomer, unassigned) [Compound 61 Diastereomer 2]
EC50 (HCV genotype 1b replicon): < 0.25 µM | Ms Plasma nucleoside AUC [2]: + (+ ≤ 150) | Ms Plasma nucleoside Cmax [2]: + (+ ≤ 15) | Ms Liver TP AUC [1]: +++ (500 < +++ ≤ 1500) | Ms Liver TP Cmax [1]: ++++ (100 < ++++) | CC50 (Zluc cells): > 50 µM

CCCCOC(=O)[C@@H](C)NP(=O)(OC[C@H]1O[C@@H](n2ccc(=O)[nH]c2=O)[C@](C)(Cl)[C@@H]1O)Oc1ccccc1 (single isomer, unassigned) [Compound 202i Diastereomer 2]
EC50 (HCV genotype 1b replicon): 0.25 to 1 µM | Ms Plasma nucleoside AUC [2]: ++++ (1500 < ++++) | Ms Plasma nucleoside Cmax [2]: ++++ (100 < ++++) | Ms Liver TP AUC [1]: ++++ (1500 < ++++) | Ms Liver TP Cmax [1]: ++++ (100 < ++++) | CC50 (Zluc cells): > 50 µM

C[C@@H](NP(=O)(OC[C@H]1O[C@@H](n2ccc(=O)[nH]c2=O)[C@](C)(Cl)[C@@H]1O)Oc1ccccc1)C(=O)OCc1ccccc1 (single isomer, unassigned) [Compound 205i Diastereomer 2]
EC50 (HCV genotype 1b replicon): 0.25 to 1 µM | Ms Plasma nucleoside AUC [2]: ++++ (1500 < ++++) | Ms Plasma nucleoside Cmax [2]: +++ (50 < +++ ≤ 100) | Ms Liver TP AUC [1]: ++++ (1500 < ++++) | Ms Liver TP Cmax [1]: ++++ (100 < ++++) | CC50 (Zluc cells): > 50 µM

CC(C)OC(=O)[C@H](C)NP(=O)(OC[C@H]1O[C@@H](n2cc(F)c3c(N)ncnc32)[C@](C)(Cl)[C@@H]1O)Oc1ccccc1 (single isomer, unassigned) [Compound 207ii Diastereomer 1]
EC50 (HCV genotype 1b replicon; Hepatitis C virus, 72 h): > 10 µM | CC50 (in vitro): > 50 µM

CC(C)OC(=O)[C@H](C)NP(=O)(OC[C@H]1O[C@@H](n2ccc3c(N)ncnc32)[C@](C)(Cl)[C@@H]1O)Oc1ccccc1 (single isomer, unassigned) [Compound 208ii Diastereomer 1]
EC50 (HCV genotype 1b replicon; Hepatitis C virus, 72 h): > 10 µM | Ms Liver TP AUC [1]: BLQ | Ms Liver TP Cmax [1]: BLQ | CC50 (in vitro): > 50 µM

CC(C)OC(=O)[C@H](C)NP(=O)(OC[C@H]1O[C@@H](n2ccc3c(N)ncnc32)[C@](C)(Cl)[C@@H]1O)Oc1ccccc1 (single isomer, unassigned) [Compound 208ii Diastereomer 2]
EC50 (HCV genotype 1b replicon): > 10 µM | Ms Liver TP AUC [1]: BLQ | Ms Liver TP Cmax [1]: BLQ | CC50 (Zluc cells): > 50 µM

CCCCOC(=O)[C@H](C)NP(=O)(OC[C@H]1O[C@@H](n2ccc(=O)[nH]c2=O)[C@](C)(Cl)[C@@H]1O)Oc1ccccc1 (single isomer, unassigned; diastereomer 1) [Compound 202ii Diastereomer 1]
EC50 (HCV genotype 1b replicon): < 0.25 µM | Ms Plasma nucleoside AUC [2]: ++++ (1500 < ++++) | Ms Plasma nucleoside Cmax [2]: ++++ (100 < ++++) | Ms Liver TP AUC [1]: +++ (500 < +++ ≤ 1500) | Ms Liver TP Cmax [1]: ++++ (100 < ++++) | CC50 (Zluc cells): > 50 µM

CCOC(=O)[C@H](C)NP(=O)(OC[C@H]1O[C@@H](n2ccc(=O)[nH]c2=O)[C@](C)(Cl)[C@@H]1O)Oc1ccccc1 (single isomer, unassigned; diastereomer 1) [Compound 203ii Diastereomer 1]
EC50 (HCV genotype 1b replicon): 0.25 to 1 µM | Ms Plasma nucleoside AUC [2]: +++ (500 < +++ ≤ 1500) | Ms Plasma nucleoside Cmax [2]: +++ (50 < +++ ≤ 100) | Ms Liver TP AUC [1]: +++ (500 < +++ ≤ 1500) | Ms Liver TP Cmax [1]: +++ (50 < +++ ≤ 100) | CC50 (Zluc cells): > 50 µM

CCOC(=O)[C@H](CC(C)C)NP(=O)(OC[C@H]1O[C@@H](n2ccc(=O)[nH]c2=O)[C@](C)(Cl)[C@@H]1O)Oc1ccccc1 (single isomer, unassigned; diastereomer 1) [Compound 204ii Diastereomer 1]
EC50 (HCV genotype 1b replicon): 1 to 10 µM | Ms Plasma nucleoside AUC [2]: +++ (500 < +++ ≤ 1500) | Ms Plasma nucleoside Cmax [2]: +++ (50 < +++ ≤ 100) | Ms Liver TP AUC [1]: ++ (150 < ++ ≤ 500) | Ms Liver TP Cmax [1]: ++ (15 < ++ ≤ 50) | CC50 (Zluc cells): > 50 µM

CCCCOC(=O)[C@H](C)NP(=O)(OC[C@H]1O[C@@H](n2ccc(=O)[nH]c2=O)[C@](C)(Cl)[C@@H]1O)Oc1ccccc1 (single isomer, unassigned; diastereomer 2) [Compound 202ii Diastereomer 2]
EC50 (HCV genotype 1b replicon): < 0.25 µM | Ms Plasma nucleoside AUC [2]: ++++ (1500 < ++++) | Ms Plasma nucleoside Cmax [2]: ++++ (100 < ++++) | Ms Liver TP AUC [1]: +++ (500 < +++ ≤ 1500) | Ms Liver TP Cmax [1]: +++ (50 < +++ ≤ 100) | CC50 (Zluc cells): > 50 µM

CCOC(=O)[C@H](C)NP(=O)(OC[C@H]1O[C@@H](n2ccc(=O)[nH]c2=O)[C@](C)(Cl)[C@@H]1O)Oc1ccccc1 (single isomer, unassigned; diastereomer 2) [Compound 203ii Diastereomer 2]
EC50 (HCV genotype 1b replicon): 0.25 to 1 µM | Ms Plasma nucleoside AUC [2]: +++ (500 < +++ ≤ 1500) | Ms Plasma nucleoside Cmax [2]: +++ (50 < +++ ≤ 100) | Ms Liver TP AUC [1]: ++ (150 < ++ ≤ 500) | Ms Liver TP Cmax [1]: ++ (15 < ++ ≤ 50) | CC50 (Zluc cells): > 50 µM

CCOC(=O)[C@H](CC(C)C)NP(=O)(OC[C@H]1O[C@@H](n2ccc(=O)[nH]c2=O)[C@](C)(Cl)[C@@H]1O)Oc1ccccc1 (single isomer, unassigned; diastereomer 2) [Compound 204ii Diastereomer 2]
EC50 (HCV genotype 1b replicon): 0.25 to 1 µM | Ms Plasma nucleoside AUC [2]: ++++ (1500 < ++++) | Ms Plasma nucleoside Cmax [2]: ++++ (100 < ++++) | Ms Liver TP AUC [1]: ++ (150 < ++ ≤ 500) | Ms Liver TP Cmax [1]: ++ (15 < ++ ≤ 50) | CC50 (Zluc cells): > 50 µM

C[C@@]1(Cl)[C@H](O)[C@@H](CO)O[C@H]1n1cnc2c(N)ncnc21 [Compound 302, 2′-C-Chloro-2′-C-methyladenosine]
EC50 (HCV genotype 1b replicon; Hepatitis C virus, 72 h): > 10 µM | CC50 (in vitro): > 50 µM

C[C@@]1(Cl)[C@H](O)[C@@H](CO)O[C@H]1n1cc(F)c2c(N)ncnc21 [Compound 303]
EC50 (HCV genotype 1b replicon; Hepatitis C virus, 72 h): > 10 µM | CC50 (in vitro): > 50 µM

CCOc1nc(N)nc2c1ncn2[C@@H]1O[C@H](CO)[C@@H](O)[C@@]1(C)Cl [Compound 304]
EC50 (HCV genotype 1b replicon; Hepatitis C virus, 72 h): > 10 µM | CC50 (in vitro): > 50 µM

C[C@@]1(Cl)[C@H](O)[C@@H](CO)O[C@H]1c1ccc2c(N)ncnn12 [Compound 305]
EC50 (HCV genotype 1b replicon; Hepatitis C virus, 72 h): > 10 µM | CC50 (in vitro): > 50 µM

C[C@@]1(Cl)[C@H](O)[C@@H](CO)O[C@H]1n1ccc(N)nc1=O [Compound 306]
EC50 (HCV genotype 1b replicon; Hepatitis C virus, 72 h): > 10 µM | CC50 (in vitro): > 50 µM
